Data on 37 molecules can be found in patent US6677350B1, “Beta-fluoroethyl thiourea compounds and use” (priority 1999, dated 2004).

In brackets after ≈: the same amount, converted by molar mass. Several values for one entry are separate records, joined by “and”; a condition that tells them apart may be missing. Equal entries are not always repeated. Where two headings read alike, the source gives them in different places.

One data set relates to Mtb. The data set is described as follows: Actual minimum inhibitory concentration (MIC), lowest concentration inhibiting 99% of the inoculum. Format: cell-based, Mycobacterium tuberculosis. To be noted: read-out: minimum inhibitory concentration (MIC).
Data set [1] deals with M. tuberculosis H37Rv (ATCC 27294). The data set is described as follows: In vitro anti-tuberculosis screening, BACTEC 460 radiometric system, percent inhibition of growth. Type of data set: cell-based, Mycobacterium tuberculosis. To be noted: for inhibition at 12.5 µg/mL: Mycobacterium tuberculosis.
Setting [2] is: Mycobacterium tuberculosis, lowest concentration inhibiting 99% of the inoculum.
[3] abbreviates: Mtb H37Rv, drug concentration 12.5 μg/mL, read-out: inhibition of the growth of Mtb.
Setting [4] is: read-out: Activity % inhibition at 12.5 μg/mL (chalcone-like compounds), Mtb H37Rv, 12.5 μg/mL, BACTEC 12B medium.
Where [5] appears, read: read-out: inhibition of the growth of Mtb, Mtb H37Rv, drug concentration 12.5 μg/mL.
Setting [6] is: Mtb H37Rv, 12.5 μg/mL, BACTEC 12B medium, read-out: Activity % inhibition at 12.5 μg/mL (chalcones).
Where [7] appears, read: Mtb H37Rv, 12.5 μg/mL, BACTEC 12B medium.
[8] abbreviates: Mtb H37Rv, drug concentration 12.5 μg/mL.

The term melting point denotes the temperature of the solid-liquid transition. In turn, `COc1ccc(-c2cc(=O)c3c(OC)c(-c4c(OC)cc5oc(-c6ccc(OC)cc6)cc(=O)c5c4OC)c(OC)cc3o2)cc1` [Compound 151, 6,6″-Biapigenin hexamethylether] displayed a melting point of 303 to 304 °C. Also, the MIC with Mtb (setting [2]) was more than 20.1 µM. Further, the inhibition at 12.5 µg/mL in data set [1] (Mtb H37Rv, 12.5 μg/mL, BACTEC 12B medium, read-out: Activity % Inhibition at 12.5 μg/mL (biflavonoids)) came out at 96%. Also, the inhibition at 12.5 µg/mL in data set [1] (setting [3]) stood at 96%.

Consider `O=C(C=Cc1cccnc1)c1ccc(F)cc1` [Compound 53, 1-(4-Fluorophenyl)-3-(pyridin-3-yl)-2-propen-1-one], for which the melting point was in the range of 126 to 127 °C. The MIC in the data set on Mtb (Mycobacterium tuberculosis) was 6.8 µM (≈ 1.55 µg/mL). For the same molecule, in data set [1] (setting [4]), the inhibition at 12.5 µg/mL is 98%. The inhibition at 12.5 µg/mL in data set [1] (setting [5]) was determined as 98%.

`O=C(C=Cc1ccccc1)c1ccco1` [Compound 56, 1-(Furan-2-yl)-3-phenyl-2-propen-1-one]: the melting point is 94 to 95 °C. Also, in the data set on Mtb (Mycobacterium tuberculosis), the MIC turned out to be 31.5 µM (≈ 6.24 µg/mL). Further, the inhibition at 12.5 µg/mL in data set [1] (setting [4]) stood at 96%. Further, the inhibition at 12.5 µg/mL in data set [1] (setting [5]) came out at 96%.

Molecule `O=C(/C=C/c1cccc(Cl)c1)c1ccccc1O` [Compound 24, 3-Chloro-2′-hydroxychalcone] gave a melting point of 108 to 108.5 °C. Further, the MIC with Mtb (setting [2]) is 48.3 µM (≈ 12.5 µg/mL). For the same molecule, the inhibition at 12.5 µg/mL in data set [1] (setting [6]) was 90%. For the same molecule, the inhibition at 12.5 µg/mL in data set [1] (setting [3]) came out at 90%.

In turn, `O=C(C=Cc1cc2ccccc2c2ccccc12)c1cccc(O)c1` [Compound 54, 1-(3-Hydroxyphenyl)-3-phenanthren-9-yl-2-propen-1-one] registered a melting point of 212 to 213 °C. Further, the MIC in the data set on Mtb (Mycobacterium tuberculosis) was found to be 19.2 µM (≈ 6.23 µg/mL). The inhibition at 12.5 µg/mL in data set [1] (setting [4]) was 97%. Moreover, in data set [1] (setting [5]), the inhibition at 12.5 µg/mL was 97%.

For the molecule `O=C(/C=C/c1cccc(I)c1)c1ccccc1O` [Compound 40, 3-Iodo-2′-hydroxychalcone], the MIC in the data set with Mtb (setting [2]) is more than 35.7 µM. Moreover, the inhibition at 12.5 µg/mL in data set [1] (setting [6]) and in data set [1] (setting [3]) was 92% throughout.

For the molecule “1-(5-pyridin-2-yl)-3-(phenanthen-9-yl)-2-propen-1-one [Compound 55]”, the MIC in the data set on Mtb (lowest concentration inhibiting 99% of the inoculum) amounted to 20.2 µM. Further, the “Activity % inhibition at 12.5 μg/mL (chalcone-like compounds)” value in data set [1] (setting [7]) amounted to 96%.

With `COc1ccc(Br)c2c1C(=O)CC(c1ccccc1)O2` (centres unmarked) [Compound 133, 5-Methoxy-8-bromo-flavanone], the melting point was 134 to 165 °C. For the same molecule, in data set [1] (Mtb H37Rv, 12.5 μg/mL, BACTEC 12B medium, read-out: Activity % Inhibition at 12.5 μg/mL (flavanones)), the inhibition at 12.5 µg/mL is 87%. Further, in data set [1] (setting [3]), the inhibition at 12.5 µg/mL amounted to 87%.

`O=c1cc(-c2ccccc2)oc2cc(I)ccc12` [Compound 102]: in data set [1] (Mtb H37Rv, 12.5 μg/mL), the “anti-TB activity in words” value is “weakly active or inactive”. Further, the “Activity % Inhibition at 12.5 μg/mL (flavones)” value in data set [1] (setting [7]) stood at 20%.

As to `Nc1ccccc1/C=C/C(=O)c1ccc(Br)cc1O` [Compound 38], the “Activity % inhibition at 12.5 μg/mL (chalcones)” value in data set [1] (setting [7]) stood at 12%. In data set [1] (setting [8]), the “inhibition of the growth of Mtb” value was 8% and 12%.

As for `Nc1ccc(O)c(C(=O)/C=C/c2ccccc2)c1` [Compound 12], the “Activity % inhibition at 12.5 μg/mL (chalcones)” value in data set [1] (setting [7]) stood at 6%. For the same molecule, the “inhibition of the growth of Mtb” value in data set [1] (setting [8]) is recorded as 6%.

Consider `COc1ccc(C(=O)/C=C/c2cccnc2)cc1` [Compound 71], for which, in data set [1] (setting [7]), the “Activity % inhibition at 12.5 μg/mL (chalcone-like compounds)” value was 0%.

On to `O=C(/C=C/c1ccccc1)c1ccccc1O` [Compound 5, 2′-hydroxychalcone], for which the inhibition at 12.5 µg/mL in data set [1] (read-out: Activity % inhibition at 12.5 μg/mL (chalcones), Mtb H37Rv, 12.5 μg/mL, BACTEC 12B medium) stood at 61%; in data set [1] (setting [5]), 61%.

For the molecule `COc1ccc(/C=C/C(=O)c2cccc(I)c2O)cc1` [Compound 49], in data set [1] (setting [7]), the “Activity % inhibition at 12.5 μg/mL (chalcones)” value was 0%. For the same molecule, the “inhibition of the growth of Mtb” value in data set [1] (setting [8]) is 0%.

With `O=c1cc(-c2ccc(I)cc2)oc2ccccc12` [Compound 84], the “anti-TB activity in words” value in data set [1] (Mtb H37Rv, 12.5 μg/mL) is “weakly active or inactive”. Further, the “Activity % Inhibition at 12.5 μg/mL (flavones)” value in data set [1] (setting [7]) came out at 51%. Besides, the “inhibition of the growth of Mtb” value in data set [1] (setting [8]) was 51%.

Regarding `O=C(C=Cc1ccc(Br)cc1)c1ccccc1O` [Compound 33], the “Activity % inhibition at 12.5 μg/mL (chalcones)” value in data set [1] (setting [7]) was determined as 70%. Moreover, the “inhibition of the growth of Mtb” value in data set [1] (setting [8]) came to 70%.

Take `O=C1CC(c2ccccc2)Oc2ccc(I)cc21` (centres unmarked) [Compound 139]: in data set [1] (setting [7]), the “Activity % Inhibition at 12.5 μg/mL (flavanones)” value turned out to be 27%.

Take `O=C(/C=C/c1cc2ccccc2[nH]1)c1ccncc1` [Compound 64]: the “Activity % inhibition at 12.5 μg/mL (chalcone-like compounds)” value in data set [1] (setting [7]) came to 12%.

As to `Nc1cccc(C(=O)/C=C/c2ccccc2I)c1` [Compound 41], in data set [1] (setting [7]), the “Activity % inhibition at 12.5 μg/mL (chalcones)” value is on record as 88%. Also, in data set [1] (setting [8]), the “inhibition of the growth of Mtb” value came out at 88%.

`Nc1ncccc1/C=C/C(=O)c1cc2ccccc2cc1O` [Compound 74]: in data set [1] (setting [7]), the “Activity % inhibition at 12.5 μg/mL (chalcone-like compounds)” value came to 0%.

Turning to `COc1cc(OC)c2c(=O)cc(-c3ccc(O)cc3)oc2c1` [Compound 132], in data set [1] (setting [7]), the “Activity % Inhibition at 12.5 μg/mL (flavones)” value was 0%.

Regarding `COc1ccc(-c2cc(=O)c3cc(I)ccc3o2)cc1` [Compound 107], the “Activity % Inhibition at 12.5 μg/mL (flavones)” value in data set [1] (setting [7]) turned out to be 15%.

With `O=C1c2ccccc2OC(c2cccc(Cl)c2)C1O` (centres unmarked) [Compound 135], in data set [1] (setting [7]), the “Activity % Inhibition at 12.5 μg/mL (flavanones)” value came out at 63%.

Regarding `COc1ccc(C=CC(=O)c2ccc(F)cc2O)cc1` [Compound 22], in data set [1] (setting [7]), the “Activity % inhibition at 12.5 μg/mL (chalcones)” value was found to be 63%.

Regarding `O=C1CC(c2ccc(O)cc2)Oc2cc(O)c(-c3c(O)cc(O)c4c3OC(c3ccc(O)cc3)CC4=O)c(O)c21` (centres unmarked) [Compound 168, Rhusflavanone], the “Activity % Inhibition at 12.5 μg/mL (biflavonoids)” value in data set [1] (setting [7]) is 0%.

For `O=C1C[C@@H](c2ccc(O)cc2)Oc2c1c(O)cc(O[C@@H]1O[C@H](CO)[C@@H](O)[C@H](O)[C@H]1O)c2[C@H]1C(=O)c2c(O)cc(O)cc2O[C@@H]1c1ccc(O)cc1` [Compound 178, Multifloraside], the “Activity % Inhibition at 12.5 μg/mL (biflavonoids)” value in data set [1] (setting [7]) amounted to 0%.

`O=C1CC(c2cccc(Br)c2)Oc2ccccc21` (centres unmarked) [Compound 134]: the “Activity % Inhibition at 12.5 μg/mL (flavanones)” value in data set [1] (setting [7]) amounted to 73%. Further, the “inhibition of the growth of Mtb” value in data set [1] (setting [8]) is 73%.

Turning to `COc1ccc(-c2cc(=O)c3ccc(F)cc3o2)cc1` [Compound 118], the “Activity % Inhibition at 12.5 μg/mL (flavones)” value in data set [1] (setting [7]) is 0%.

On to `COc1ccc(C2CC(=O)c3ccc(I)cc3O2)cc1` (centres unmarked) [Compound 149], for which the “Activity % Inhibition at 12.5 μg/mL (flavanones)” value in data set [1] (setting [7]) turned out to be 0%.

For `O=c1c(Br)c(-c2ccccc2)oc2ccccc12` [Compound 108], the “Activity % Inhibition at 12.5 μg/mL (flavones)” value in data set [1] (setting [7]) is on record as 13%.

As to `O=c1cc(-c2cccc(Cl)c2)oc2ccccc12` [Compound 121], in data set [1] (Mtb H37Rv, 12.5 μg/mL), the “anti-TB activity in words” value is “weakly active or inactive”. Also, the “Activity % Inhibition at 12.5 μg/mL (flavones)” value in data set [1] (setting [7]) amounted to 0%. The “inhibition of the growth of Mtb” value in data set [1] (setting [8]) stood at 0%.

As to `COc1ccc(C2CC(=O)c3cc(C(=O)O)ccc3O2)cc1` (centres unmarked) [Compound 145], in data set [1] (setting [7]), the “Activity % Inhibition at 12.5 μg/mL (flavanones)” value is given as 0%.

Take `CCOc1cc(O)c(C(=O)C=Cc2ccccc2)c(OCC)c1` [Compound 14]: in data set [1] (setting [7]), the “Activity % inhibition at 12.5 μg/mL (chalcones)” value is reported as 0%.

In the case of `COc1ccc(-c2oc3cc(F)ccc3c(=O)c2O)cc1` [Compound 85], the “anti-TB activity in words” value in data set [1] (Mtb H37Rv, 12.5 μg/mL) is “did not change the activity”. In addition, in data set [1] (setting [7]), the “Activity % Inhibition at 12.5 μg/mL (flavones)” value is reported as 50%.

Take `O=C1CC(c2ccccc2)Oc2ccc(Cl)cc21` (centres unmarked) [Compound 138]: the “Activity % Inhibition at 12.5 μg/mL (flavanones)” value in data set [1] (setting [7]) is reported as 30%.

On to `O=c1c(I)c(-c2ccccc2)oc2ccccc12` [Compound 127], for which the “anti-TB activity in words” value in data set [1] (Mtb H37Rv, 12.5 μg/mL) was “weakly active or inactive”. Also, the “Activity % Inhibition at 12.5 μg/mL (flavones)” value in data set [1] (setting [7]) was 0%.

As for `COc1cc(OC)c2c(=O)cc(-c3ccc(OC)c(I)c3)oc2c1` [Compound 126], in data set [1] (setting [7]), the “Activity % Inhibition at 12.5 μg/mL (flavones)” value was found to be 0%.
